# Assay results taken from ChEMBL document CHEMBL3885861, “Open TG-GATES”.
# Organism: Rattus norvegicus
# Test: Open TG-GATES - Regimen: Single
# Format: toxicity, organism-based, Sprague-Dawley
# Design: regimen Single, gender Male, age 6 weeks
# Details: in vivo, iv, 10 mg/kg, route intravenous injection, dose level High; for KIDNEY_L / KIDNEY_R / KIDNEY_TOTAL: tissue Kidney; for LIVER: tissue Liver; for ALP / ALT / AST / CRE / DBIL / GLC / K / LDH / Na / RALB / TBIL / TC / TG / TP / gamma-GTP: tissue Plasma
smiles,measurement,setting,value
COc1cccc2c1C(=O)c1c(O)c3c(c(O)c1C2=O)C[C@@](O)(C(=O)CO)C[C@@H]3O[C@H]1C[C@H](N)[C@H](O)[C@H](C)O1 [DOXORUBICIN],Eos,"3 h, tissue Blood",0.6%
same,Fbg,"3 h, tissue Blood",275.8 mg/dL
same,Ht,"3 h, tissue Blood",37.5%
same,Lym,"3 h, tissue Blood",60.4%
same,MCH,"3 h, tissue Blood",21.8 pg
same,MCHC,"3 h, tissue Blood",34.9%
same,MCV,"3 h, tissue Blood",62.3 fL
same,Mono,"3 h, tissue Blood",8.8%
same,Neu,"3 h, tissue Blood",27.4%
same,PT,"3 h, tissue Blood",16.5 s
same,Plat,"3 h, tissue Blood",121.7 x10_4/uL
same,RBC,"3 h, tissue Blood",603 x10_4/ul
same,Ret,"3 h, tissue Blood",6.2%
same,KIDNEY_L,3 h,0.9 g
same,KIDNEY_R,3 h,0.9 g
same,KIDNEY_TOTAL,3 h,1.9 g
same,LIVER,3 h,9.3 g
same,ALP,3 h,1462.4 IU/L
same,ALT,3 h,43 IU/L
same,AST,3 h,86.6 IU/L
same,CRE,3 h,0.1 mg/dL
same,DBIL,3 h,0 mg/dL
same,GLC,3 h,171.4 mg/dL
same,K,3 h,4.6 meq/L
same,LDH,3 h,187.2 IU/L
same,Na,3 h,141.4 meq/L
same,RALB,3 h,2.9 g/dL
same,TBIL,3 h,0.008 mg/dL
same,TC,3 h,75.4 mg/dL
same,TG,3 h,140 mg/dL
same,TP,3 h,5.1 g/dL
same,gamma-GTP,3 h,1.6 IU/L
same,TERMINAL_BW,6 h,205.6 g
same,Bas,"6 h, tissue Blood",0%
same,Eos,"6 h, tissue Blood",0.2%
same,Fbg,"6 h, tissue Blood",275.8 mg/dL
same,Ht,"6 h, tissue Blood",38%
same,Lym,"6 h, tissue Blood",64%
same,MCH,"6 h, tissue Blood",21.6 pg
same,MCHC,"6 h, tissue Blood",34%
same,MCV,"6 h, tissue Blood",63.4 fL
same,Mono,"6 h, tissue Blood",6.4%
same,Neu,"6 h, tissue Blood",26.4%
same,PT,"6 h, tissue Blood",16.2 s
same,Plat,"6 h, tissue Blood",118.6 x10_4/uL
same,RBC,"6 h, tissue Blood",599 x10_4/ul
same,Ret,"6 h, tissue Blood",6.9%
same,KIDNEY_L,6 h,0.9 g
same,KIDNEY_R,6 h,0.9 g
same,KIDNEY_TOTAL,6 h,1.8 g
same,LIVER,6 h,8.7 g
same,ALP,6 h,1468.4 IU/L
same,AST,6 h,86.4 IU/L
same,CRE,6 h,0.2 mg/dL
same,DBIL,6 h,0 mg/dL
same,GLC,6 h,190.8 mg/dL
same,K,6 h,4 meq/L
same,LDH,6 h,180 IU/L
same,Na,6 h,141 meq/L
same,RALB,6 h,2.9 g/dL
same,TBIL,6 h,0.036 mg/dL
same,TC,6 h,69.4 mg/dL
same,TG,6 h,54.4 mg/dL
same,TP,6 h,5.1 g/dL
same,gamma-GTP,6 h,1.6 IU/L
same,TERMINAL_BW,9 h,206.9 g
same,Bas,"9 h, tissue Blood",0%
same,Eos,"9 h, tissue Blood",0.4%
same,Fbg,"9 h, tissue Blood",279.2 mg/dL
same,Hb,"9 h, tissue Blood",13 g/dL
same,Ht,"9 h, tissue Blood",38.2%
same,Lym,"9 h, tissue Blood",56.2%
same,MCH,"9 h, tissue Blood",21.3 pg
same,MCHC,"9 h, tissue Blood",34.1%
same,MCV,"9 h, tissue Blood",62.5 fL
same,Mono,"9 h, tissue Blood",5.6%
same,Neu,"9 h, tissue Blood",35.4%
same,PT,"9 h, tissue Blood",15.9 s
same,Plat,"9 h, tissue Blood",118.9 x10_4/uL
same,RBC,"9 h, tissue Blood",611.6 x10_4/ul
same,Ret,"9 h, tissue Blood",6.1%
same,KIDNEY_L,9 h,0.9 g
same,KIDNEY_R,9 h,0.9 g
same,KIDNEY_TOTAL,9 h,1.9 g
same,LIVER,9 h,8.2 g
same,ALP,9 h,1273.6 IU/L
same,AST,9 h,84.2 IU/L
same,CRE,9 h,0.1 mg/dL
same,DBIL,9 h,0.002 mg/dL
same,GLC,9 h,186.2 mg/dL
same,K,9 h,4.1 meq/L
same,Na,9 h,139.6 meq/L
same,RALB,9 h,3 g/dL
same,TBIL,9 h,0.036 mg/dL
same,TC,9 h,68.4 mg/dL
same,TG,9 h,56.8 mg/dL
same,TP,9 h,5.2 g/dL
same,gamma-GTP,9 h,1.2 IU/L
same,TERMINAL_BW,24 h,206.3 g
same,Bas,"24 h, tissue Blood",0%
same,Eos,"24 h, tissue Blood",0.8%
same,Fbg,"24 h, tissue Blood",323 mg/dL
same,Ht,"24 h, tissue Blood",37.9%
same,Lym,"24 h, tissue Blood",74.2%
same,MCH,"24 h, tissue Blood",22.1 pg
same,MCHC,"24 h, tissue Blood",35.9%
same,MCV,"24 h, tissue Blood",61.6 fL
same,Mono,"24 h, tissue Blood",3%
same,Neu,"24 h, tissue Blood",20.8%
same,PT,"24 h, tissue Blood",15.9 s
same,Plat,"24 h, tissue Blood",131.1 x10_4/uL
same,RBC,"24 h, tissue Blood",615.6 x10_4/ul
same,Ret,"24 h, tissue Blood",3.2%
same,KIDNEY_L,24 h,0.9 g
same,KIDNEY_R,24 h,0.9 g
same,KIDNEY_TOTAL,24 h,1.8 g
same,LIVER,24 h,9.1 g
same,ALP,24 h,1298.4 IU/L
same,ALT,24 h,28 IU/L
same,CRE,24 h,0.2 mg/dL
same,DBIL,24 h,0 mg/dL
same,GLC,24 h,208.8 mg/dL
same,K,24 h,4.9 meq/L
same,LDH,24 h,129.2 IU/L
same,Na,24 h,141.2 meq/L
same,RALB,24 h,2.9 g/dL
same,TBIL,24 h,0.014 mg/dL
same,TC,24 h,82.4 mg/dL
same,TG,24 h,60 mg/dL
same,TP,24 h,5.2 g/dL
same,gamma-GTP,24 h,1.4 IU/L
